Measured values published in patent US6281342A, “Pradimicin compounds” (Bristol-Myers Squibb Company, priority 1994, dated 2001).
In brackets after ≈: the same amount, converted by molar mass. Like-named read-outs stand apart in the source and are kept apart here.

Key:
[1] = Water solubility at neutral pH in PBS containing Ca^2+/Mg^2+; assay type: physicochemical; details: pbs with ca2+/mg2+; Table 3; water-solubility at neutral pH in phosphate buffered saline containing Ca^2+/Mg^2+
Description: The compounds of the invention have good water solubility. Typically, the water solubility is greater than 10 mg/ml when measured at neutral pH in PBS containing Ca^2+ /Mg^2+, preferably greater than 20 mg/ml.
^2) Water-solubility at neutral pH in phosphate buffered saline
containing Ca^2+ /Mg^2+.

[2] = test system: Candida tropicalis 85-8; test: MIC, two-fold agar dilution, C. tropicalis 85-8; assay type: cell-based; details: 858, YMA pH 7.0, 28° C., 40 hours
Description: (§1) Minimum inhibitory concentrations (MICs) of nine 4'-N-substituted pradimicin derivatives were determined by two-fold agar dilution method on phosphate-buffered yeast morphology agar (YMA, pH 7.0, Difco Laboratories). A 5-μl of fungal cell suspension containing 2×10^6 cells/ml (2×10^7 cells/ml for Trichophyton mentagrophytes) were spotted on the surface of the agar plates containing test compound. MICs were recorded after 40-hour incubation at 28° C. except for T. mentagrophytes, which required 60-hour incubation to produce visually evaluable growth on the drug-free control plates and were defined as the lowest antibiotic concentrations showing no growth or less than five discrete colonies per spot.
(§2) Medium: yeast morphology agar + 1/15 M phosphate buffer (pH 7.0)
(§3) Incubation conditions: 28° C., 40 hours (C. albicans ATCC 38247 & T.
(§4) Medium: Yeast morphology agar + 1/15 phosphate buffer (pH 7.0).

[3] = test system: Candida albicans ATCC 38247; test: MIC, two-fold agar dilution, C. albicans ATCC 38247; assay type: cell-based; details: ATCC38247, YMA pH 7.0, 28° C., 60 hours (table footnote)
Description: as §1, §2, §3
(§5) mentagrophytes #4329: 28° C., 60 hours).
as §4

[4] = test system: Candida albicans IAM 4888; test: MIC, two-fold agar dilution, C. albicans IAM 4888; assay type: cell-based; details: IAM4888, YMA pH 7.0, 28° C., 40 hours
Description: as §1, §2, §3, §4

[5] = test system: Cryptococcus neoformans D49; test: MIC, two-fold agar dilution, C. neoformans D49; assay type: cell-based; details: YMA pH 7.0, 28° C., 40 hours
Description: as §1, §2, §3, §4

[6] = test system: Candida albicans ATCC 32354; test: MIC, two-fold agar dilution, C. albicans ATCC 32354; assay type: cell-based; details: ATCC32354, YMA pH 7.0, 28° C., 40 hours
Description: as §1, §2, §3, §4

[7] = test system: Aspergillus fumigatus IAM 2034; test: MIC, two-fold agar dilution, A. fumigatus IAM 2034; assay type: cell-based; details: IAM2034
Description: as §1, §2, §3, §4

[8] = test system: Candida albicans A9540; test: animal or person; assay type: in vivo, male ICR mice infected with Candida albicans A9540; details: Candida albicans; for ED50: Table 2, 95% confidence limits in parentheses, read-out: PD50 (50% protection dose)
Description: (§6) The in vivo therapeutic efficacies of seven 4'-N-substituted pradimicin derivatives, KHM-1, KHM-2, KHM-3, KHM-4, KHM-5, KHM-6 and KHM-7 were evaluated in the mouse infected with Candida albicans A9540 and Aspergillus fumigatusIAM 2034. Groups of five specific-pathogen-free male ICR mice weighing 20-25 g at each dose level were intravenously infected with approximately 10 times the 50% lethal dose of C. albicans A9540 (1×10^6 cells/mouse) or A. fumigatus IAM 2034 (1×10^7 cells/mouse). Immediately after the fungal infection, test compounds dissolved with 10% DMSO in distilled water were intravenously given to the mouse at the dosed volume of 0.1 ml/10 g of body weight. […] Untreated control animals died 7 to 13 days post-infection.

[9] = test system: Saccharomyces cerevisiae ATCC 9763; test: MIC, two-fold agar dilution, S. cerevisiae ATCC 9763; assay type: cell-based; details: ATCC9763, YMA pH 7.0, 28° C., 40 hours
Description: as §1, §2, §3, §4

[10] = test system: Candida albicans 83-2-14; test: MIC, two-fold agar dilution, C. albicans 83-2-14; assay type: cell-based; details: 83214, YMA pH 7.0, 28° C., 40 hours
Description: as §1, §2, §3, §4

[11] = test system: Candida tropicalis IFO 10241; test: MIC, two-fold agar dilution, C. tropicalis IFO 10241; assay type: cell-based; details: IFO10241, YMA pH 7.0, 28° C., 40 hours
Description: as §1, §2, §3, §4

[12] = test system: Cryptococcus neoformans IAM 4514; test: MIC, two-fold agar dilution, C. neoformans IAM 4514; assay type: cell-based; details: IAM4514
Description: as §1, §2, §3, §4

[13] = test system: Trichophyton mentagrophytes #4329; test: MIC, two-fold agar dilution, T. mentagrophytes #4329; assay type: cell-based
Description: as §1, §2, §3, §5, §4

[14] = test system: Candida albicans A9540; test: MIC, two-fold agar dilution, C. albicans A9540; assay type: cell-based
Description: as §1, §2, §3, §4

[15] = test system: Aspergillus fumigatus IAM 2034; test: Therapeutic efficacy in Aspergillus fumigatus systemic infection in mice; assay type: in vivo, male ICR mice infected with Aspergillus fumigatus IAM 2034; details: IAM2034, 480 h; for responders at 6.3 mg/kg: 6.3 mg/kg iv; for responders at 6.3 mg/kg / responders at 12.5 mg/kg / responders at 25 mg/kg / responders at 50 mg/kg: 20th day post-infection, read-out: S/T (No. of survivors/tested) (converted); for responders at 12.5 mg/kg: 12.5 mg/kg iv; for responders at 25 mg/kg: 25 mg/kg iv; for responders at 50 mg/kg: 50 mg/kg iv
Description: as §6

[16] = Aspergillus fumigatus IAM 2034, YMA pH 7.0, 28° C., 40 hours, read-out: MIC
[17] = Table 3, Aspergillus fumigatus IAM 2034, YMA, read-out: MIC Af-3
[18] = A9540, 480 h, C. albicans, mice, 6.3 mg/kg iv, 20th day post-infection, read-out: S/T (No. of survivors/tested) (converted)
[19] = A9540, 480 h, C. albicans, mice, 12.5 mg/kg iv, 20th day post-infection, read-out: S/T (No. of survivors/tested) (converted)
[20] = A9540, 480 h, C. albicans, mice, 25 mg/kg iv, 20th day post-infection, read-out: S/T (No. of survivors/tested) (converted)
[21] = A9540, 480 h, C. albicans, mice, 50 mg/kg iv, 20th day post-infection, read-out: S/T (No. of survivors/tested) (converted)
[22] = A9540, 480 h, C. albicans, mice, iv
[23] = Cryptococcus neoformans IAM 4514, YMA pH 7.0, 28° C., 40 hours, read-out: MIC
[24] = Table 3, Cryptococcus neoformans IAM 4514, YMA, read-out: MIC Cn-2
[25] = Table 3, Trichophyton mentagrophytes #4329, YMA, read-out: MIC TM-4
[26] = Trichophyton mentagrophytes #4329, YMA pH 7.0, 28° C., 60 hours, read-out: MIC
[27] = Candida albicans A9540, YMA pH 7.0, 28° C., 40 hours, read-out: MIC
[28] = Table 3, Candida albicans A9540, YMA, read-out: MIC Ca-4
[29] = Aspergillus fumigatus, A. fumigatus, mice
[30] = Aspergillus fumigatus, Table 2, A. fumigatus, mice, iv, 95% confidence limits in parentheses, read-out: PD50 (50% protection dose)
[31] = Table 3, Aspergillus fumigatus IAM 2034, iv, read-out: PD50 (mice) Af-3
[32] = A9540, in Mus musculus, iv, 480 h, read-out: S/T (No. of survivors/tested)

Row | SMILES | solubility [1] [mg/mL] | MIC [2] [µg/mL] | MIC [3] [µg/mL] | MIC [4] [µg/mL] | MIC [5] [µg/mL] | MIC [6] [µg/mL] | MIC [7, 16] [µg/mL] | MIC [7, 17] [µg/mL] | ED50 [8, 22] [mg/kg] | MIC [9] [µg/mL] | MIC [10] [µg/mL] | MIC [11] [µg/mL] | MIC [12, 23] [µg/mL] | MIC [12, 24] [µg/mL] | MIC [13, 25] [µg/mL] | MIC [13, 26] [µg/mL] | MIC [14, 27] [µg/mL] | MIC [14, 28] [µg/mL] | responders at 6.3 mg/kg [15, 29] [%] | responders at 12.5 mg/kg [15, 29] [%] | further results
1 | COc1cc(O)c2c(c1)C(=O)c1c(cc3c(c1O)-c1c(cc(C)c(C(=O)N[C@H](C)C(=O)O)c1O)[C@H](O[C@@H]1O[C@H](C)[C@H](NC#N)[C@H](O[C@@H]4OC[C@@H](O)[C@H](O)[C@H]4O)[C@H]1O)[C@H]3O)C2=O [KHM-2, 4'-N-Cyanopradimicin C] | > 20 | 12.5 (≈ 14.7 µM) | 1.6 (≈ 1.88 µM) | 3.1 (≈ 3.64 µM) | 3.1 (≈ 3.64 µM) | 3.1 (≈ 3.64 µM) | 3.1 (≈ 3.64 µM) | 3.1 (≈ 3.64 µM) | 13 | 3.1 (≈ 3.64 µM) | 6.3 (≈ 7.4 µM) | 12.5 (≈ 14.7 µM) | 1.6 (≈ 1.88 µM) | 1.6 (≈ 1.88 µM) | 12.5 (≈ 14.7 µM) | 12.5 (≈ 14.7 µM) | 3.1 (≈ 3.64 µM) | 3.1 (≈ 3.64 µM) | 0 | 20 | responders at 6.3 mg/kg [8, 18]: 20%; responders at 12.5 mg/kg [8, 19]: 40%; responders at 25 mg/kg [8, 20]: 80%; responders at 50 mg/kg [8, 21]: 100%; responders at 25 mg/kg [15, 29]: 40%; responders at 50 mg/kg [15, 29]: 60%; ED50 [15, 30]: 27 mg/kg
2 | COc1cc(O)c2c(c1)C(=O)c1c(cc3c(c1O)-c1c(cc(C)c(C(=O)N[C@H](CO)C(=O)O)c1O)[C@H](O[C@@H]1O[C@H](C)[C@H](NC#N)[C@H](O[C@@H]4OC[C@@H](O)[C@H](O)[C@H]4O)[C@H]1O)[C@H]3O)C2=O [KHM-4, 4'-N-Cyanopradimicin FA2] | > 20 | 12.5 (≈ 14.4 µM) | 3.1 (≈ 3.57 µM) | 6.3 (≈ 7.26 µM) | 6.3 (≈ 7.26 µM) | 3.1 (≈ 3.57 µM) | 6.3 (≈ 7.26 µM) | 6.3 (≈ 7.26 µM) | 20 | 3.1 (≈ 3.57 µM) | 6.3 (≈ 7.26 µM) | 12.5 (≈ 14.4 µM) | 3.1 (≈ 3.57 µM) | 3.1 (≈ 3.57 µM) | 12.5 (≈ 14.4 µM) | 12.5 (≈ 14.4 µM) | 6.3 (≈ 7.26 µM) | 6.3 (≈ 7.26 µM) | 0 | 0 | responders at 6.3 mg/kg [8, 18]: 0%; responders at 12.5 mg/kg [8, 19]: 20%; responders at 25 mg/kg [8, 20]: 60%; responders at 50 mg/kg [8, 21]: 80%; responders at 25 mg/kg [15, 29]: 0%; responders at 50 mg/kg [15, 29]: 0%; ED50 [15, 30]: > 50 mg/kg; ED50 [15, 31]: > 50 mg/kg
3 | COc1cc(O)c2c(c1)C(=O)c1c(cc3c(c1O)-c1c(cc(C)c(C(=O)N[C@H](C)C(=O)O)c1O)[C@H](O[C@@H]1O[C@H](C)[C@H](N(C)N=O)[C@H](O[C@@H]4OC[C@@H](O)[C@H](O)[C@H]4O)[C@H]1O)[C@H]3O)C2=O [KHM-6, 4'-N-Nitrosopradimicin A] | > 20 | 12.5 (≈ 14.4 µM) | 1.6 (≈ 1.84 µM) | 6.3 (≈ 7.24 µM) | 1.6 (≈ 1.84 µM) | 3.1 (≈ 3.56 µM) | 3.1 (≈ 3.56 µM) | 3.1 (≈ 3.56 µM) | 27 | 3.1 (≈ 3.56 µM) | 6.3 (≈ 7.24 µM) | 12.5 (≈ 14.4 µM) | 1.6 (≈ 1.84 µM) | 1.6 (≈ 1.84 µM) | 3.1 (≈ 3.56 µM) | 3.1 (≈ 3.56 µM) | 6.3 (≈ 7.24 µM) | 6.3 (≈ 7.24 µM) | 0 | 40 | responders at 6.3 mg/kg [8, 32]: 0%; responders at 12.5 mg/kg [8, 32]: 20%; responders at 25 mg/kg [8, 32]: 20%; responders at 50 mg/kg [8, 32]: 80%; responders at 25 mg/kg [15, 29]: 0%; responders at 50 mg/kg [15, 29]: 40%; ED50 [15, 30]: > 50 mg/kg; ED50 [15, 31]: > 50 mg/kg
